Results published in US20080207614A1, “QUINAZOLINE DERIVATIVES FOR THE TREATMENT AND PREVENTION OF DIABETES AND OBESITY” (SK CHEMICALS CO., LTD., priority 2004, published 2008).

Legend:
[1] = tested on: AMPK; experiment: Measurement of AMPK activity by Western blot in C2C12 cells; assay type: cell-based; design: key to AMPK activity (degree of phosphorylation of serine-79 and threonine-172): fold increase in threonine-172 phosphorylation; conditions: 10 μM for 50 minutes; for AMPK activity (degree of phosphorylation of serine-79 and threonine-172): no superscript: Western blot of serine-79 and threonine-172 phosphorylation; for AMPK activity (class: degree of phosphorylation of threonine-172): strong/mild/weak
How it was run: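 Western blot readout of AMPK Thr-172 and ACC Ser-79 phosphorylation, normalised against ERK, served as the activity measure. Cells were C2C12 after differentiation, treated 50 minutes with 10 μM test material. Grading by Thr-172 increase: ≥3-fold strong, 1-3-fold mild, <1-fold weak.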

[2] = tested on: C2C12 muscle cells; experiment: Analysis of glucose absorption (2-deoxyglucose) in differentiated C2C12 muscle cells; assay type: cell-based; conditions: test materials 10 μM, times relative to control group
How it was run: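 Uptake of 0.2 μCi 2-deoxyglucose over 20 min, counted radiometrically in lysed cells. Before tracer, compounds (10 μM) were applied for 30 min to C2C12 cells differentiated 6 days in 1% serum and equilibrated 3 h in 5 mM glucose KRB.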

Compound	AMPK activity (degree of phosphorylation of serine-79 and threonine-172) [1]	AMPK activity (class: degree of phosphorylation of threonine-172) [1]	Glucose absorption [2]
Cc1nc(NCc2ccc3c(c2)OCO3)c2ccccc2n1 [Compound 170, Benzo[1,3]dioxol-5-ylmethyl-(2-methylquinazolino-4-yl)-amine]	8.8	strong (“strong” means that the degree of phosphorylation of threonine-172 increased by 3 times or more)	2.4
Cc1nc(NCc2cccc(F)c2)c2ccccc2n1 [Compound 171, (3-Fluorobenzyl)-(2-methylquinazolino-4-yl)-amine]	6.6	strong (“strong” means that the degree of phosphorylation of threonine-172 increased by 3 times or more)	2.2
Cc1nc(NCCc2cccc(F)c2)c2ccccc2n1 [Compound 172, [2-(3-Fluorophenyl)-ethyl]-(2-methylquinazolino-4-yl)-amine]	4.4	strong (“strong” means that the degree of phosphorylation of threonine-172 increased by 3 times or more)	2.6
CC(C)c1nc(NCc2ccccc2)c2ccccc2n1 [Compound 175, Benzyl-(2-isopropylquinazolino-4-yl)-amine]	4.8	strong (“strong” means that the degree of phosphorylation of threonine-172 increased by 3 times or more)	2.7
COc1cccc(CNc2nc(C(C)C)nc3ccccc23)c1 [Compound 176, (2-Isopropylquinazolino-4-yl)-(3-methoxybenzyl)-amine]	4.4	strong (“strong” means that the degree of phosphorylation of threonine-172 increased by 3 times or more)	2.4
COc1ccc(CNc2nc(C(C)C)nc3ccccc23)cc1 [Compound 177, (2-Isopropylquinazolino-4-yl)-(4-methoxybenzyl)-amine]	5.5	strong (“strong” means that the degree of phosphorylation of threonine-172 increased by 3 times or more)	2.8
CC(C)c1nc(NCc2cccc(C(F)(F)F)c2)c2ccccc2n1 [Compound 178, (2-Isopropylquinazolino-4-yl)-(3-trifluoromethylbenzyl)-amine]	5.7	strong (“strong” means that the degree of phosphorylation of threonine-172 increased by 3 times or more)	4.2
CC(C)c1nc(NCCc2ccccc2)c2ccccc2n1 [Compound 179, (2-Isopropylquinazolino-4-yl)-phenethylamine]	3.8	strong (“strong” means that the degree of phosphorylation of threonine-172 increased by 3 times or more)	2.9
CC(C)c1nc(NCCCCc2ccccc2)c2ccccc2n1 [Compound 180, (2-Isopropylquinazolino-4-yl)-(4-phenylbutyl)-amine]	3.9	strong (“strong” means that the degree of phosphorylation of threonine-172 increased by 3 times or more)	4.1
CC(C)c1nc(NCc2cccc3ccccc23)c2ccccc2n1 [Compound 181, (2-Isopropylquinazolino-4-yl)-naphthaleno-1-ylmethylamine]	3.1	strong (“strong” means that the degree of phosphorylation of threonine-172 increased by 3 times or more)	3.1
CC(C)c1nc(NCc2ccc3c(c2)OCO3)c2ccccc2n1 [Compound 182, Benzo[1,3]dioxol-5-ylmethyl-(2-isopropylquinazolino-4-yl)-amine]	2.9	strong (“strong” means that the degree of phosphorylation of threonine-172 increased by 3 times or more)	3.1
CC(C)c1nc(NCc2cccc(F)c2)c2ccccc2n1 [Compound 183, (3-Fluorobenzyl)-(2-isopropylquinazolino-4-yl)-amine]	2.6	strong (“strong” means that the degree of phosphorylation of threonine-172 increased by 3 times or more)	3.3
CC(C)c1nc(NCCc2cccc(F)c2)c2ccccc2n1 [Compound 184, [2-(3-Fluorophenyl)-ethyl]-(2-isopropylquinazolino-4-yl)-amine]	1.9	strong (“strong” means that the degree of phosphorylation of threonine-172 increased by 3 times or more)	3.2
CC(C)(C)c1nc(NCc2ccccc2)c2ccccc2n1 [Compound 187, Benzyl-(2-tert-butylquinazolino-4-yl)-amine]	0.7	mild (“mild” means that the degree of phosphorylation of threonine-172 increased by 1 to 3 times)	2.4
CC(C)(C)c1nc(NCCc2ccccc2)c2ccccc2n1 [Compound 191, (2-tert-Butylquinazolino-4-yl)-phenethylamine]	5.2	strong (“strong” means that the degree of phosphorylation of threonine-172 increased by 3 times or more)	2.4
CC(C)(C)c1nc(NCCCCc2ccccc2)c2ccccc2n1 [Compound 192, (2-tert-Butylquinazolino-4-yl)-(4-phenylbutyl)-amine]	6.5	strong (“strong” means that the degree of phosphorylation of threonine-172 increased by 3 times or more)	2.1
CC(C)(C)c1nc(NCCc2cccc(F)c2)c2ccccc2n1 [Compound 196, (2-tert-Butylquinazolino-4-yl)-[2-(3-fluorophenyl)-ethyl]-amine]	4.8	strong (“strong” means that the degree of phosphorylation of threonine-172 increased by 3 times or more)	2.1
c1ccc(CNc2nc(C3CCCCC3)nc3ccccc23)cc1 [Compound 199, Benzyl-(2-cyclohexylquinazolino-4-yl)-amine]	2.3	strong (“strong” means that the degree of phosphorylation of threonine-172 increased by 3 times or more)	2.1
COc1cccc(CNc2nc(C3CCCCC3)nc3ccccc23)c1 [Compound 200, (2-Cyclohexylquinazolino-4-yl)-(3-methoxybenzyl)-amine]	1.5	strong (“strong” means that the degree of phosphorylation of threonine-172 increased by 3 times or more)	2.7
COc1ccc(CNc2nc(C3CCCCC3)nc3ccccc23)cc1 [Compound 201, (2-Cyclohexylquinazolino-4-yl)-(4-methoxybenzyl)-amine]	2.8	strong (“strong” means that the degree of phosphorylation of threonine-172 increased by 3 times or more)	1.7
c1ccc(CCNc2nc(C3CCCCC3)nc3ccccc23)cc1 [Compound 203, (2-Cyclohexylquinazolino-4-yl)-phenethylamine]	3.9	strong (“strong” means that the degree of phosphorylation of threonine-172 increased by 3 times or more)	2.0
FC(F)(F)c1cccc(CNc2nc(-c3ccccn3)nc3ccccc23)c1 [Compound 226, (2-Pyridino-2-ylquinazolino-4-yl)-(3-trifluoromethylbenzyl)-amine]	4.3	strong (“strong” means that the degree of phosphorylation of threonine-172 increased by 3 times or more)	1.9
c1ccc(CCNc2nc(-c3ccccn3)nc3ccccc23)cc1 [Compound 227, Phenethyl-(2-pyridino-2-ylquinazolino-4-yl)-amine]	4.9	strong (“strong” means that the degree of phosphorylation of threonine-172 increased by 3 times or more)	1.6
c1ccc(CCCCNc2nc(-c3ccccn3)nc3ccccc23)cc1 [Compound 228, (4-Phenylbutyl)-(2-pyridino-2-ylquinazolino-4-yl)-amine]	7.9	strong (“strong” means that the degree of phosphorylation of threonine-172 increased by 3 times or more)	2.1
c1ccc(-c2nc(NCc3cccc4ccccc34)c3ccccc3n2)nc1 [Compound 229, Naphthaleno-1-ylmethyl-(2-pyridino-2-ylquinazolino-4-yl)-amine]	4.7	strong (“strong” means that the degree of phosphorylation of threonine-172 increased by 3 times or more)	1.9
